Test: solvent given as SMILES

**Q.** For N#Cc1ccc(-c2cn3ccc[n+]3[n-]2)cc1, which absorption maximum (in ClCCl) is on record?
**A.** 381 nm

**Q.** Which absorption maximum (in CC#N) does the source give for CCCSC1=[N+]2C(=C(c3ccccc3)c3ccc(SCCC)n3[B-]2(F)F)C=C1SC#N here?
**A.** 536 nm

**Q.** What about the absorption maximum (in CCCCCC) of the same compound?
**A.** 556 nm

**Q.** What about the absorption maximum (in CCOC(C)=O) of the same compound?
**A.** 545 nm

**Q.** And the absorption maximum (in CO)?
**A.** 536 nm

**Q.** What about the absorption maximum (in ClCCl) of the same compound?
**A.** 545 nm

**Q.** For CC(C)(C)n1c(=O)c2cc3ccc4cccc5ccc(c2c1=O)c3c45, which absorption maximum (in ClC(Cl)Cl) is on record?
**A.** 423 nm

**Q.** Which absorption maximum (in ClC(Cl)Cl) does the source give for CCCCCCN1C(=O)c2cccc3cc(/N=C\c4cnc5ccccc5c4)cc(c23)C1=O here?
**A.** 328 nm

**Q.** Which absorption maximum (in CS(C)=O) does the source give for N#Cc1c(/C=C/c2ccc(N(c3ccccc3)c3ccccc3)cc2)cc(-c2ccccc2)cc1N1CCCCC1 here?
**A.** 398 nm

**Q.** For CC(C)(C)NC(=O)c1ccc(-c2cc3ccccc3o2)c2ccc3c4ccccc4c4ccccc4c3c12, which absorption maximum (in ClCCl) is on record?
**A.** 364 nm

**Q.** What does the source list for O=C1/C(=C2\Sc3ccccc3C2=O)Sc2ccccc21?
**A.** absorption maximum (in C1COCCO1): 536 nm; absorption maximum (in CN(C)C=O): 543 nm; absorption maximum (in CO): 538 nm; absorption maximum (in CS(C)=O): 545 nm; absorption maximum (in c1ccccc1): 544 nm

**Q.** With N#CC(C#N)=Cc1ccc2nc(C#Cc3ccc(N(c4ccc(C#Cc5nc6ccc(C=C(C#N)C#N)cc6s5)cc4)c4ccc(C#Cc5nc6ccc(C=C(C#N)C#N)cc6s5)cc4)cc3)sc2c1 as the compound, how does the absorption maximum (in Cc1ccccc1) read?
**A.** 440 nm

**Q.** Which absorption maximum (in c1ccccc1) does the source give for O=c1oc2ccc3ccccc3c2nc1-c1ccc(Cl)cc1 here?
**A.** 404 nm

**Q.** Which absorption maximum (in Cc1ccccc1) does the source give for O=S(=O)(c1ccc(N2c3ccccc3[Si](c3ccccc3)(c3ccccc3)c3ccccc32)cc1)c1ccc(N2c3ccccc3[Si](c3ccccc3)(c3ccccc3)c3ccccc32)cc1 here?
**A.** 328 nm

**Q.** For CC1=C(c2ccc(N(C)C)cc2)C(C)=[N+]2C1=C(c1c(-c3ccccn3)nc3ccccn13)c1c(C)c(-c3ccc(N(C)C)cc3)c(C)n1[B-]2(F)F, which absorption maximum (in ClCCl) is on record?
**A.** 574 nm

**Q.** Which results are given for COc1ccc(C#Cc2ccc(C#N)cc2)cc1OC?
**A.** absorption maximum (in C1COCCO1): 326 nm; absorption maximum (in CC#N): 325 nm; absorption maximum (in CCCCCC): 343 nm; absorption maximum (in CCCCCCC): 344 nm; absorption maximum (in CCCO): 329 nm; absorption maximum (in CCOC(C)=O): 326 nm; absorption maximum (in CS(C)=O): 334 nm; absorption maximum (in ClC(Cl)Cl): 329 nm; absorption maximum (in ClCCl): 331 nm

**Q.** With Oc1ccccc1/C=N/CC/N=C/c1ccccc1O as the compound, how does the absorption maximum (in CC#N) read?
**A.** 396 nm

**Q.** With c1ccc(N2c3ccccc3Sc3cc(-c4cccc5nc6ccccc6cc45)ccc32)cc1 as the compound, how does the absorption maximum (in C1CCOC1) read?
**A.** 407 nm

**Q.** And the absorption maximum (in CC#N)?
**A.** 407 nm

**Q.** And the absorption maximum (in CC(C)=O)?
**A.** 407 nm

**Q.** And the absorption maximum (in CC(C)OC(C)C)?
**A.** 407 nm

**Q.** And the absorption maximum (in CCCCCC)?
**A.** 407 nm

**Q.** What about the absorption maximum (in CCCCOCCCC) of the same compound?
**A.** 407 nm

**Q.** What about the absorption maximum (in CCN(CC)CC) of the same compound?
**A.** 407 nm

**Q.** And the absorption maximum (in CCOC(C)=O)?
**A.** 407 nm

**Q.** What about the absorption maximum (in CCOCC) of the same compound?
**A.** 407 nm

**Q.** And the absorption maximum (in CN(C)C=O)?
**A.** 407 nm

**Q.** What about the absorption maximum (in ClCCl) of the same compound?
**A.** 407 nm

**Q.** With COc1ccc(C2=c3sc(-c4ccc(OC)cc4)cc3=[N+]3C2=Nc2c(-c4ccc(OC)cc4)c4sc(-c5ccc(OC)cc5)cc4n2[B-]3(F)F)cc1 as the compound, how does the absorption maximum (in ClC(Cl)Cl) read?
**A.** 788 nm

**Q.** Which results are given for Cc1ccc(C2=C3C=C(I)C(I)=[N+]3[B-](F)(F)n3c2cc(I)c3I)cc1?
**A.** absorption maximum (in C1CCCCC1): 581 nm; absorption maximum (in CC#N): 571 nm; absorption maximum (in CCO): 577 nm; absorption maximum (in CCOC(C)=O): 573.5 nm; absorption maximum (in CO): 574.5 nm; absorption maximum (in OCC(F)(F)F): 569 nm

**Q.** Which absorption maximum (in ClC(Cl)Cl) does the source give for FC(F)(F)c1ccc2oc3nc4oc5ccc(-n6c7ccccc7c7ccccc76)cc5c4cc3c2c1 here?
**A.** 342 nm

**Q.** Which absorption maximum (in ClCCl) does the source give for O=c1c2cccc3cccc(c32)c2nc3c(F)c(F)c(F)c(F)c3n12 here?
**A.** 382 nm

**Q.** Which absorption maximum (in CC#N) does the source give for CN1/C(=C\C=C\C2=C3C=CC(c4ccccc4)=[N+]3[B-](F)(F)n3c2ccc3-c2ccccc2)C(C)(C)c2ccccc21 here?
**A.** 671 nm

**Q.** With Cc1ccc(C(=O)/C=C/c2ccc(N(C)C)cc2)cc1 as the compound, how does the absorption maximum (in C1CCOC1) read?
**A.** 404 nm

**Q.** What about the absorption maximum (in CC#N) of the same compound?
**A.** 411 nm

**Q.** And the absorption maximum (in CC(=O)O)?
**A.** 427 nm

**Q.** What about the absorption maximum (in CC(C)=O) of the same compound?
**A.** 405 nm

**Q.** What about the absorption maximum (in CCO) of the same compound?
**A.** 422 nm

**Q.** And the absorption maximum (in CN(C)C=O)?
**A.** 419 nm

**Q.** And the absorption maximum (in CO)?
**A.** 419 nm

**Q.** And the absorption maximum (in Cc1ccccc1)?
**A.** 404 nm

**Q.** What about the absorption maximum (in ClC(Cl)Cl) of the same compound?
**A.** 412 nm

**Q.** And the absorption maximum (in c1ccccc1)?
**A.** 404 nm

**Q.** For CC1(C)c2ccccc2-c2cc3c4ccccc4n(-c4ccc(-c5nc(-c6ccccc6)nc(-c6ccccc6)n5)cc4)c3cc21, which absorption maximum (in Cc1ccccc1) is on record?
**A.** 362 nm

**Q.** Which absorption maximum (in ClCCl) does the source give for O=[N+]([O-])c1cccc2c1ccc1[n+]2[B-](F)(F)n2c-1cc1c3ccccc3c3ccccc3c12 here?
**A.** 518 nm

**Q.** For Cc1cc(-c2ccc(C(C)(C)C)cc2)c2nsnc2c1-c1ccc(C(C)(C)C)cc1, which absorption maximum (in ClCCl) is on record?
**A.** 376 nm

**Q.** Which absorption maximum (in O) does the source give for N#Cc1c(N2CCCC2)cc(-c2ccccc2)c2c1-c1cccc3cccc-2c13 here?
**A.** 428 nm

**Q.** Which absorption maximum (in C1CCCCC1) does the source give for COc1ccc(-c2ccc(-c3ccc(OC)cc3)cc2)cc1 here?
**A.** 293 nm

**Q.** With C[Si](C)(C)c1sc([Si](C)(C)C)c2c1sc1ccsc12 as the compound, how does the absorption maximum (in ClC(Cl)Cl) read?
**A.** 310 nm

**Q.** For C(=C\c1nc2c3ccccc3c3ccccc3c2o1)/c1ccccc1, which absorption maximum (in CC#N) is on record?
**A.** 364 nm

**Q.** For CC(C)(C)c1cc2c3c(c1)c1cc(C(C)(C)C)cc4c1n3B1c3c-2cccc3-c2cc(C(C)(C)C)cc3c5cc(C(C)(C)C)cc-4c5n1c23, which absorption maximum (in C1CCOC1) is on record?
**A.** 439 nm

**Q.** With c1ccc(-c2nc(-c3ccccc3)n3ccccc23)cc1 as the compound, how does the absorption maximum (in C1CCCCC1) read?
**A.** 302 nm

**Q.** And the absorption maximum (in CC#N)?
**A.** 305 nm

**Q.** And the absorption maximum (in CO)?
**A.** 301 nm

**Q.** And the absorption maximum (in ClC(Cl)Cl)?
**A.** 308 nm

**Q.** And the absorption maximum (in ClCCl)?
**A.** 385 nm

**Q.** And the absorption maximum (in O)?
**A.** 305 nm

**Q.** Which absorption maximum (in ClCCl) does the source give for CCCCn1c(-c2ccc(-c3nnc(-c4ccc5ccccc5c4)o3)cc2)nc2c3ccccc3c3ccccc3c21 here?
**A.** 363 nm

**Q.** With CC1=[N+]2C(=C(c3ccc(-c4c5ccccc5c(-c5ccccc5)c5ccccc45)cc3)c3ccc(C)n3[B-]2(F)F)C=C1 as the compound, how does the absorption maximum (in CC#N) read?
**A.** 508 nm

**Q.** And the absorption maximum (in CCCCCC)?
**A.** 512 nm

**Q.** And the absorption maximum (in CCO)?
**A.** 511 nm

**Q.** What about the absorption maximum (in CN(C)C=O) of the same compound?
**A.** 512 nm

**Q.** What about the absorption maximum (in Cc1ccccc1) of the same compound?
**A.** 516 nm

**Q.** And the absorption maximum (in ClCCl)?
**A.** 513 nm

**Q.** For CC(C)(C)OC(=O)NC(Cc1ccccc1)C(=O)OCc1ccc2c3cccc4cccc(c5cccc1c52)c43 (stereo not given), which absorption maximum (in CCO) is on record?
**A.** 440 nm

**Q.** With CCCCCCn1c(=O)c2c3[nH]c4ccccc4sc3c3c(=O)n(CCCCCC)c(=O)c3c2c1=O as the compound, how does the absorption maximum (in ClCCl) read?
**A.** 500 nm

**Q.** With COc1ccc(C2=C3C=CC(=[N+](C)C)C=C3[Si](C)(C)c3cc(N(C)C)ccc32)c(OC)c1 as the compound, how does the absorption maximum (in O) read?
**A.** 649 nm

**Q.** What does the source list for CCCCCCC(CCCCCC)n1c(=O)c2c3ccc4cccc5c6cccc7ccc(c2c1=O)c(c76)c3c45?
**A.** absorption maximum (in C1CCCCC1): 335 nm; absorption maximum (in CC#N): 336 nm; absorption maximum (in CC(C)=O): 336 nm; absorption maximum (in CCCCCC): 334 nm; absorption maximum (in CCO): 336 nm; absorption maximum (in CCOCC): 335 nm; absorption maximum (in CS(C)=O): 339 nm; absorption maximum (in Cc1ccccc1): 339 nm; absorption maximum (in ClC(Cl)(Cl)Cl): 338 nm; absorption maximum (in ClC(Cl)Cl): 339 nm

**Q.** With Cc1nc2c(cc3c4c(cccc42)C(=O)OC3=O)o1 as the compound, how does the absorption maximum (in CCO) read?
**A.** 360 nm
